How the values were obtained:
Assay in all cases: XTT assay (cell metabolism/cytotoxicity)
Type in all cases: cell-based, human
D341Med cells = conditions: for IC50: Homo sapiens, D341 Med
Description: (§1) To evaluate the efficacy of this compound in MB cells, we first determined the relative IC50 values for each cell line using XTT assays (Figure 3A–E). The XTT assay is used to measure cellular metabolic activity (overall activity of mitochondrial dehydrogenases) as an indicator of cell viability, proliferation, and cytotoxicity. […] Overall, IC50 values for all cell lines were in the micromolar range, making C29 a very efficient agent to inhibit cell metabolism and viability.
(§2) Figure 3 A new pharmacological inhibitor of CXCR1/2, C29, inhibits the metabolism of MB cells. (A–D). Cytotoxic effect induced by C29 on Daoy (A), ONS-76 (B), HD-MB03 (C), and D341Med (D) cells. Cells were treated with increasing doses of the inhibitor for 24, 48, and 72 h. Cytotoxicity was measured using the XTT assay. Absorbance measurements were performed at […], n = 3. (E) Table with the different IC50 values for all conditions. (F) Cell death after 48 h of treatment with control (DMSO, CT) or C29 1, 2.5 or 5 µM treatment, on MB cells, and normal cells (N), n = 3. Statistics were performed using the one-way method ANOVA. ** p < 0.01, *** p < 0.001. For this figure, Daoy = Da, ONS-76 = O, HD-MB03 = HD, D341 = D3, C8D1A = C8. TEXT PRINTED IN THE PICTURE: (E) C29: IC50 (μM): 5.6 (Cell line: Daoy; 24h); IC50 (μM): 3 (Cell line: Daoy; 48h); IC50 (μM): 0.9 (Cell line: Daoy; 72h); IC50 (μM): 17.9 (Cell line: ONS-76; 24h); IC50 (μM): 6.8 (Cell line: ONS-76; 48h); IC50 (μM): 2.1 (Cell line: ONS-76; 72h); IC50 (μM): 2.6 (Cell line: HD-MB03; 24h); IC50 (μM): 1.8 (Cell line: HD-MB03; 48h); IC50 (μM): 1.3 (Cell line: HD-MB03; 72h); IC50 (μM): 7.5 (Cell line: D341Med; 24h); IC50 (μM): 4.9 (Cell line: D341Med; 48h); IC50 (μM): 4.6 (Cell line: D341Med; 72h)
(§3) centrations of C29 in 96‐well plates for 48h. 50μl/well of XTT solution (Cell Proliferation
(§4) kit II, Sigma‐Aldrich) were added to measure cell metabolism at 490 nm with GloMax‐ […]
(§5) 30 μg of proteins were separated on 10% SDS‐polyacrylamide
(§6) gels and transferred on PVDF membranes in Tris‐Glycine buffer (25 mM Tris, 192 mM
(§7) glycine, pH 8∙3) + 20% ethanol (v:v). Membranes were blocked with 3% BSA, at room tem‐
(§8) perature for 1 h, then immunoblotted overnight with primary antibodies diluted in 3%
(§9) BSA, at 4 °C. The following primary antibodies were used: AKT (CST, #9272S), phospho‐
(§10) ARD1 (homemade polyclonal rabbit antibody). Membranes were incubated with HRP‐
(§11) conjugated secondary antibodies anti‐rabbit IgG 1/5000e (Promega), at room temperature,
(§12) for 1h30. After washing, the Advansta WesternBright Quantum HRP substrate (Diagom‐
(§13) ics, Blagnac, France) was used as detection reagent.

Daoy cells = conditions: for IC50: Homo sapiens, Daoy
Description: as §1, §2, §3, §4, §5, §6, §7, §8, §9, §10, §11, §12, §13

HD-MB03 cells = conditions: for IC50: Homo sapiens
Description: as §1, §2, §3, §4, §5, §6, §7, §8, §9, §10, §11, §12, §13

ONS-76 cells = conditions: for IC50: Homo sapiens
Description: as §1, §2, §3, §4, §5, §6, §7, §8, §9, §10, §11, §12, §13

O=C(Nc1cccc(Cl)c1)Nc1nc2ccc([N+](=O)[O-])cc2s1 [C29, 1-(3-chlorophenyl)-3-(6-nitrobenzo[d]thiazol-2-yl) urea]
Effect on cell metabolism at low concentrations (D341Med cells; D341Med, 72 h, 0.1 to 2.5 µM): stimulated metabolism
IC50 (D341Med cells; D341Med, 24 h): 7.5 µM
IC50 (D341Med cells; D341Med, 48 h): 4.9 µM
IC50 (D341Med cells; D341Med, 72 h): 4.6 µM
Selectivity index (SI) (D341Med cells; IC50 normal cells (C8D1A) / IC50 D341Med): 3.94
IC50 (Daoy cells; 24 h): 5.6 µM
IC50 (Daoy cells; 48 h): 3 µM
IC50 (Daoy cells; 72 h): 0.9 µM
Selectivity index (SI) (Daoy cells; IC50 normal cells (C8D1A) / IC50 Daoy): 6.44
IC50 (HD-MB03 cells; HD-MB03, 24 h): 2.6 µM
IC50 (HD-MB03 cells; HD-MB03, 48 h): 1.8 µM
IC50 (HD-MB03 cells; HD-MB03, 72 h): 1.3 µM
Selectivity index (SI) (HD-MB03 cells; IC50 normal cells (C8D1A) / IC50 HD-MB03): 10.7
IC50 (ONS-76 cells; ONS-76, 24 h): 17.9 µM
IC50 (ONS-76 cells; ONS-76, 48 h): 6.8 µM
IC50 (ONS-76 cells; ONS-76, 72 h): 2.1 µM
Selectivity index (SI) (ONS-76 cells; IC50 normal cells (C8D1A) / IC50 ONS-76): 2.84
